According to patent US8987193B2, “Nisin derivatives and the use thereof” (University College Cork—National University of Ireland, Cork, priority 2008, dated 2015):
Ends that are not written are not given here.

Experiments:
Staph. aureus DPC5245 = experiment: Deferred antagonism assay; assay type: cell-based; conditions: producing strain; diameter of zone minus 5 mm; average of duplicates; St. aureus DPC5245
Procedure, shortened: (§1)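 Producer strains replicated on GM17 agar, grown overnight, then overlaid with soft agar (0.75% w/v) seeded with indicator strain. Zone size = clearing diameter minus 5 mm growth diameter, relative to NZ9800 pCI372nisA control; mean of duplicates.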

[1] = tested on: Staph. aureus ST528 (MRSA); experiment: Deferred antagonism assay; assay type: cell-based; conditions: producing strain, diameter of zone minus diameter of bacterial growth (5 mm), average of duplicates
Procedure, shortened: as §1

[2] = tested on: Strep. agalactiae ATCC13813; experiment: Deferred antagonism assay; assay type: cell-based; conditions: producing strain, diameter of zone minus 5 mm, average of duplicates
L. monocytogenes CBC1 = experiment: Deferred antagonism assay; assay type: cell-based, Listeria monocytogenes; parameters: key: + = Enhanced bioactivity relative to control; − = Bioactivity equal to or less than control; NA = no activity evident; conditions: producing strain; L. mono CBC1
Procedure, shortened: (§2)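 L. lactis NZ9800 strains expressing nisin A hinge variants were replicated or spotted on GM17 agar, grown overnight, then overlaid with 0.75% w/v agar seeded with indicator. Zone size is the clearing diameter minus 5 mm colony growth.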

L. monocytogenes CBC2 = experiment: Deferred antagonism assay; assay type: cell-based, Listeria monocytogenes; parameters: key: + = Enhanced bioactivity relative to control; − = Bioactivity equal to or less than control; NA = no activity evident; conditions: producing strain; L. mono CBC2
Procedure, shortened: as §2

L. monocytogenes CBC3 = experiment: Deferred antagonism assay; assay type: cell-based, Listeria monocytogenes; parameters: key: + = Enhanced bioactivity relative to control; − = Bioactivity equal to or less than control; NA = no activity evident; conditions: producing strain; L. mono CBC3
Procedure, shortened: as §2

indicator strains = experiment: Deferred antagonism assays, various indicator strains (summary); assay type: cell-based; conditions: for Strain(s) against which the derivative (producing strain) displays enhanced bioactivity: relative to nisin A-producing control, value = strains listed
Procedure, shortened: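 Producer strains were replicated on GM17 or GM17 x-gal agar, grown overnight, then overlaid with GM17, BHI, TS or MH soft agar (0.75% w/v) seeded with the indicator strain. Zone size was taken as the clearing diameter minus the diameter of bacterial growth (5 mm).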

C. sporogenes CBC5 = experiment: Deferred antagonism assay; assay type: cell-based, Clostridium sporogenes; parameters: key: + = Enhanced bioactivity relative to control; − = Bioactivity equal to or less than control; NA = no activity evident; conditions: producing strain
L. plantarum CBC6 = experiment: Deferred antagonism assay; assay type: cell-based, Lactobacillus plantarum; parameters: key: + = Enhanced bioactivity relative to control; − = Bioactivity equal to or less than control; NA = no activity evident; conditions: producing strain
Procedure, shortened: as §2

L. lactis CBC7 = experiment: Deferred antagonism assay; assay type: cell-based; parameters: key: + = Enhanced bioactivity relative to control; − = Bioactivity equal to or less than control; NA = no activity evident; conditions: producing strain
Procedure, shortened: as §2

L. lactis CBC8 = experiment: Deferred antagonism assay; assay type: cell-based; parameters: key: + = Enhanced bioactivity relative to control; − = Bioactivity equal to or less than control; NA = no activity evident; conditions: producing strain
Procedure, shortened: as §2

S. aureus CBC4 = experiment: Deferred antagonism assay; assay type: cell-based; parameters: key: + = Enhanced bioactivity relative to control; − = Bioactivity equal to or less than control; NA = no activity evident; conditions: producing strain
Procedure, shortened: as §2

Substance: NisinA N20F (ITSISLCTPGCKTGALMGCFMKTATCHCSIHVSK; not fully specified; also: lantibiotic nisin: dehydrated residues and thioether rings not placed; UniProt P13068 24-57, looked up, variant N20F) [nisin A derivative, hinge substitution N20F]
- zone size relative to that of the NZ9800 pCI372nisA control (Staph. aureus DPC5245): 20.5%
- zone size relative to that of the NZ9800 pCI372nisA control [1]: 11.25%
- zone size relative to that of the NZ9800 pCI372nisA control [2]: 15%
- Bioactivity relative to control (L. monocytogenes CBC1): −
- Bioactivity relative to control (L. monocytogenes CBC2): −
- Bioactivity relative to control (L. monocytogenes CBC3): −
- Strain(s) against which the derivative (producing strain) displays enhanced bioactivity (indicator strains): L. lactis CBC7
- Bioactivity relative to control (C. sporogenes CBC5): −
- Bioactivity relative to control (L. plantarum CBC6): −
- Bioactivity relative to control (L. lactis CBC7): +
- Bioactivity relative to control (L. lactis CBC8): −
- Bioactivity relative to control (S. aureus CBC4): −

Substance: NisinA N20H (ITSISLCTPGCKTGALMGCHMKTATCHCSIHVSK; not fully specified; also: lantibiotic nisin: dehydrated residues and thioether rings not placed; UniProt P13068 24-57, looked up, variant N20H) [nisin A derivative, hinge substitution N20H]
- zone size relative to that of the NZ9800 pCI372nisA control (Staph. aureus DPC5245): 95%
- zone size relative to that of the NZ9800 pCI372nisA control [1]: 74.5%
- zone size relative to that of the NZ9800 pCI372nisA control [2]: 59.5%
- Bioactivity relative to control (L. monocytogenes CBC1): −
- Bioactivity relative to control (L. monocytogenes CBC2): −
- Bioactivity relative to control (L. monocytogenes CBC3): +
- Strain(s) against which the derivative (producing strain) displays enhanced bioactivity (indicator strains): L. monocytogenes CBC3, S. aureus CBC4 and C. sporogenes CBC5
- Bioactivity relative to control (C. sporogenes CBC5): +
- Bioactivity relative to control (L. plantarum CBC6): −
- Bioactivity relative to control (L. lactis CBC7): −
- Bioactivity relative to control (L. lactis CBC8): −
- Bioactivity relative to control (S. aureus CBC4): +

Substance: NisinA N20R (ITSISLCTPGCKTGALMGCRMKTATCHCSIHVSK; not fully specified; also: lantibiotic nisin: dehydrated residues and thioether rings not placed; UniProt P13068 24-57, looked up, variant N20R) [nisin A derivative, hinge substitution N20R]
- zone size relative to that of the NZ9800 pCI372nisA control (Staph. aureus DPC5245): 53.5%
- zone size relative to that of the NZ9800 pCI372nisA control [1]: 0%
- zone size relative to that of the NZ9800 pCI372nisA control [2]: 19%
- Bioactivity relative to control (L. monocytogenes CBC1): −
- Bioactivity relative to control (L. monocytogenes CBC2): −
- Bioactivity relative to control (L. monocytogenes CBC3): −
- bioactivity of the producing strain, in words (indicator strains; in general / against the strains tested): greatly reduced bioactivities
- Strain(s) against which the derivative (producing strain) displays enhanced bioactivity (indicator strains): C. sporogenes CBC5
- Bioactivity relative to control (C. sporogenes CBC5): +
- Bioactivity relative to control (L. plantarum CBC6): −
- Bioactivity relative to control (L. lactis CBC7): −
- Bioactivity relative to control (L. lactis CBC8): −
- Bioactivity relative to control (S. aureus CBC4): −

Substance: NisinA N20S (ITSISLCTPGCKTGALMGCSMKTATCHCSIHVSK; not fully specified; also: lantibiotic nisin: dehydrated residues and thioether rings not placed; UniProt P13068 24-57, looked up, variant N20S) [nisin A derivative, hinge substitution N20S]
- zone size relative to that of the NZ9800 pCI372nisA control (Staph. aureus DPC5245): 87.5%
- zone size relative to that of the NZ9800 pCI372nisA control [1]: 83.5%
- zone size relative to that of the NZ9800 pCI372nisA control [2]: 72%
- Bioactivity relative to control (L. monocytogenes CBC1): −
- Bioactivity relative to control (L. monocytogenes CBC2): +
- Bioactivity relative to control (L. monocytogenes CBC3): −
- Strain(s) against which the derivative (producing strain) displays enhanced bioactivity (indicator strains): L. monocytogenes CBC2, Staph. aureus CBC4 and C. sporogenes CBC5 and L. monocytogenes CBC2, S. aureus CBC4 and L. monocytogenes CBC2, S. aureus CBC4, C. sporogenes and CBC5
- Bioactivity relative to control (C. sporogenes CBC5): +
- Bioactivity relative to control (L. plantarum CBC6): −
- Bioactivity relative to control (L. lactis CBC7): −
- Bioactivity relative to control (L. lactis CBC8): −
- Bioactivity relative to control (S. aureus CBC4): +
